Drawing on US20100075965A1, “PI3 KINASE INHIBITORS AND METHODS OF THEIR USE” (Novartis AG, priority 2006, published 2010), this text covers IC50 for 30 compounds.

PI3 K Alpha, sequence (P42336 whole entry): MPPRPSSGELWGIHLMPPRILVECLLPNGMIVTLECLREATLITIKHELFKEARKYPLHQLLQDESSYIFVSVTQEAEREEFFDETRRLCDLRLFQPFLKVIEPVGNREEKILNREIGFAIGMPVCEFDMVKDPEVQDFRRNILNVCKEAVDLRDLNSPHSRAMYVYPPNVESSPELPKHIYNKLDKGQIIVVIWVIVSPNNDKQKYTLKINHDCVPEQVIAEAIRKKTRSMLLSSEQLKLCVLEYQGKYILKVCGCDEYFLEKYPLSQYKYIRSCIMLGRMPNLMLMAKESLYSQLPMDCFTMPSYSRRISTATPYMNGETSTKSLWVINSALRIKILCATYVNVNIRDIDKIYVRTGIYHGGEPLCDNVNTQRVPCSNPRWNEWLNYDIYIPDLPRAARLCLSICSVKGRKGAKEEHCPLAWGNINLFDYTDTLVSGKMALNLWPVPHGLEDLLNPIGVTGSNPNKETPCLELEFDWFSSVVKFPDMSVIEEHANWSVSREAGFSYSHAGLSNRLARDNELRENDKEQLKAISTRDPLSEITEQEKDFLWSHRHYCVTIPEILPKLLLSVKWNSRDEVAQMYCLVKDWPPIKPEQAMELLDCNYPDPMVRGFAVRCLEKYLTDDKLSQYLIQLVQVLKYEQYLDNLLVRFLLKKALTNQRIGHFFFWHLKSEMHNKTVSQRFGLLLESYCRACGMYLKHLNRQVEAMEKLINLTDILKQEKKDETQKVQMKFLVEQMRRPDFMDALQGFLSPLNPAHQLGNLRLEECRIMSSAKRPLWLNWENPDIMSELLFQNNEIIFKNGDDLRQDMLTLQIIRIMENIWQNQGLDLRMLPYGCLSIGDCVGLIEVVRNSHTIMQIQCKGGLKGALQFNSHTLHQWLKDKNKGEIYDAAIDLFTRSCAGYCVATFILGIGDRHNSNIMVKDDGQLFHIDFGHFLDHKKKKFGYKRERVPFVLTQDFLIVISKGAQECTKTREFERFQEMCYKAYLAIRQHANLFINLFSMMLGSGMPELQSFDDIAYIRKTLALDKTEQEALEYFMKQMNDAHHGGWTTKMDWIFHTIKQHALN
PI3 K Alpha, sequence (P27986 whole entry partner): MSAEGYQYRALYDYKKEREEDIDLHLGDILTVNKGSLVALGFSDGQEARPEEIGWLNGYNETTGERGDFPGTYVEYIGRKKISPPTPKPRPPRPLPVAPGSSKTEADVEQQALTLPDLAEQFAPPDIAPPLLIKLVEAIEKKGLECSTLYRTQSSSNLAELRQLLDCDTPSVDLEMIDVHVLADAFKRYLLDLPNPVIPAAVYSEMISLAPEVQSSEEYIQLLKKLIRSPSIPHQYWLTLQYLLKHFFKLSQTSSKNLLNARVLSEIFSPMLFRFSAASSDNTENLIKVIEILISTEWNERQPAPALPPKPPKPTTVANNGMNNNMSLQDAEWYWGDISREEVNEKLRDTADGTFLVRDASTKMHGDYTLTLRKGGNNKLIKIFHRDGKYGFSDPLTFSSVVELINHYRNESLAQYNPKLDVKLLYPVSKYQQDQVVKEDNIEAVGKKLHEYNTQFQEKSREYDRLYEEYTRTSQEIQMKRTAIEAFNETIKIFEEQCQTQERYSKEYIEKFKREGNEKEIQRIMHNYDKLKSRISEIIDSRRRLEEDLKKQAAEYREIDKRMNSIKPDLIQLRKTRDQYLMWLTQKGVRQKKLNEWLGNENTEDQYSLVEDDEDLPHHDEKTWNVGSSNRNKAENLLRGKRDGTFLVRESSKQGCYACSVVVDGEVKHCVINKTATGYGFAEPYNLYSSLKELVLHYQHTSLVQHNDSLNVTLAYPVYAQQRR

The first test addresses PI3 K Alpha (Homo sapiens, UniProt P42336). Description: PI3 kinase phosphorylation assays (homogenous solution phase, one step solid phase, ATP depletion/KinaseGlo). The following applies: ATP depletion assay; read-out: PI3 K Alpha IC50. Type of test: biochemical. The method, then:
Compounds to be tested are dissolved in DMSO and directly distributed into 384-well flashplates at 1.25 μL per well. To start the reaction, 20 μL of 6 nM PI3 kinase are added into each well followed by 20 μL of 400 nM ATP containing a trace of radiolabeled ATP and 900 nM 1-alpha-phosphatidylinositol (PI). The plates are briefly centrifuged to remove any air gap. The reaction is performed for 15 minutes and then stopped by the addition of 20 μL of 100 mM EDTA. The stopped reaction is incubated overnight at RT to allow the lipid substrate to bind by hydrophobic interaction to the surface of the flashplate. The liquid in the wells is then washed away, and the labeled substrate is detected with scintillation counting.
This method is similar to Assay 1 except that the lipid substrate (1-alpha-phosphatidylinositol (PI)) is first dissolved in a coating buffer and incubated on flashplate at room temperature overnight to allow the lipid substrate to bind by hydrophobic interaction to the surface of the flashplate. Unbound substrate is then washed away. On the day of assay, 20 μL of 6 nM PI3 kinase are added into each well followed by 20 μL of 400 nM ATP containing trace of radiolabeled ATP. Compounds are added together with enzyme and ATP to the lipid-coated plates. The plates are briefly centrifuged to remove any air gap. The reaction is performed for two to three hours. The reaction is stopped by addition of 20 μL of 100 mM EDTA or by immediate plate washing. Phosphorylated lipid substrate is detected by scintillation counting.
Compounds to be tested are dissolved in DMSO and directly distributed into a black 384-well plate at 1.25 μL per well. To start the reaction, 25 μL of 10 nM PI3 kinase and 5 μg/mL 1-alpha-phosphatidylinositol (PI) are added into each well followed by 25 μL of 2 μM ATP. The reaction is performed until approx 50% of the ATP is depleted, and then stopped by the addition of 25 μL of KinaseGlo solution. The stopped reaction is incubated for 5 minutes and the remaining ATP is then detected via luminescence.
`Nc1ccc(-c2ccc3nc(NC(=O)OCCN4CCCCC4)sc3c2)cn1` [Example 2-20, [6-(6-Amino-pyridin-3-yl)-benzothiazol-2-yl]-carbamic acid 2-piperidin-1-yl-ethyl ester]: the IC50 was under 1000 nM.
On to `Nc1cccc(C(=O)Nc2nc3ccc(-c4cnc(N)c(C(F)(F)F)c4)cc3s2)n1` [Example 2-35, 6-amino-N-(6-(6-amino-5-(trifluoromethyl)pyridin-3-yl)benzo[d]thiazol-2-yl)picolinamide], for which the half-inhibitory concentration (IC50) was under 10000 nM.
`CC(=O)Nc1nc2ccc(-c3cnc(NC(C)=O)c(C(F)(F)F)c3)cc2s1` [Example 2-22, N-[6-(6-Acetylamino-5-trifluoromethyl-pyridin-3-yl)-bezothiazol-2-yl]-acetamide]: the IC50 is under 1000 nM.
Still for that read-out and setting: to `CC(=O)Nc1nc2ccc(-c3ccc(NC4CCOCC4)nc3)cc2s1` [Example 2-17, N-{6-[6-(Tetrahydro-pyran-4-ylamino)-pyridin-3-yl]-benzothiazol-2-yl}-acetamide] belongs under 1000 nM.

Staying with this test, now noted: read-out: PI3K Alpha IC50.
As to `CC(=O)Nc1cn2cc(-c3cnc(N)c(C(F)(F)F)c3)cc(C)c2n1` [Example 34, N-(6-(6-amino-5-(trifluoromethyl)pyridin-3-yl)-8-methylimidazo[1,2-a]pyridin-2-yl)acetamide], the IC50 was over 25000 nM.
Take `Nc1ncc(-c2ccc3nc(NC(=O)[C@@H](O)CCC(=O)O)cn3c2)cc1C(F)(F)F` [Example 272, (S)-5-(6-(6-amino-5-(trifluoromethyl)pyridin-3-yl)imidazo[1,2-a]pyridin-2-ylamino)-4-hydroxy-5-oxopentanoic acid]: the IC50 is under 1000 nM.
On to `CC(=O)Nc1cn2c(-c3cnc(N)c(C(F)(F)F)c3)c(-c3cnc(N)c(C(F)(F)F)c3)ccc2n1` [Example 35, N-(5,6-bis(6-amino-5-(trifluoromethyl)pyridin-3-yl)imidazo[1,2-a]pyridin-2-yl)acetamide], for which the IC50 was over 25000 nM.
Turning to `Nc1ncc(-c2ccc3nc(NC(=O)[C@H]4CCC(=O)O4)cn3c2)cc1C(F)(F)F` [Example 264, (R)-N-(6-(6-amino-5-(trifluoromethyl)pyridin-3-yl)imidazo[1,2-a]pyridin-2-yl)-5-oxotetrahydro furan-2-carboxamide], the IC50 is under 1000 nM.
On the same count and under the same terms, the same measure for `CCN(CC)CCCc1c(NC(C)=O)nc2ccc(-c3cnc(N)c(C(F)(F)F)c3)cn12` [Example 17, N-[6-(6-Amino-5-trifluoromethyl-pyridin-3-yl)-3-(3-diethylamino-propyl)-imidazo[1,2-a]pyridin-2-yl]-acetamide]: under 10000 nM; for `Nc1ncc(-c2ccc3nc(NC(=O)C4CCC(=O)N4)cn3c2)cc1C(F)(F)F` (stereo not drawn) [Example 262, N-(6-(6-amino-5-(trifluoromethyl)pyridin-3-yl)imidazo[1,2-a]pyridin-2-yl)-5-oxopyrrolidine-2-carboxamide]: under 1000 nM.
For the compound `CC(=O)Nc1nc2ccc(-c3ccc(N)nc3)cn2c1Br` [Example 14, N-[6-(6-Amino-pyridin-3-yl)-3-bromo-imidazo[1,2-a]pyridin-2-yl]-acetamide], the IC50 is under 10000 nM.
Still for that read-out and setting: to `Nc1ncc(-c2ccc3nc(NC(=O)N4CCCC4c4nccs4)cn3c2)cc1C(F)(F)F` (stereo not drawn) [Example 275, N-(6-(6-amino-5-(trifluoromethyl)pyridin-3-yl)imidazo[1,2-a]pyridin-2-yl)-2-(thiazol-2-yl)pyrrolidine-1-carboxamide] belongs under 1000 nM.
The same measure, in the same setting: the same measure for `CC(=O)Nc1cn2cc(-c3cnc(N)c(O[C@H](C)C(F)(F)F)n3)cc(F)c2n1` [Example 265, (R)-N-(6-(5-amino-6-(1,1,1-trifluoropropan-2-yloxy)pyrazin-2-yl)-8-fluoroimidazo [1,2-a]pyridin-2-yl)acetamide]: under 1000 nM; for `Nc1ncc(-c2ccc3nc(NC(=O)N4CCCC4Cc4ccccn4)cn3c2)cc1C(F)(F)F` (stereo not drawn) [Example 273, N-(6-(6-amino-5-(trifluoromethyl)pyridin-3-yl)imidazo[1,2-a]pyridin-2-yl)-2-(pyridin-2-ylmethyl) pyrrolidine-1-carboxamide]: under 1000 nM.
As to `CC(=O)Nc1cn2cc(-c3cnc(N)c(O[C@@H](C)C(F)(F)F)n3)cc(F)c2n1` [Example 259, (S)-N-(6-(5-amino-6-(1,1,1-trifluoropropan-2-yloxy)pyrazin-2-yl)-8-fluoroimidazo [1,2-a]pyridin-2-yl)acetamide], the IC50 is under 1000 nM.
On the same count and under the same terms, to `CC(=O)Nc1cn2nc(-c3cnc(N)c(-c4ccccc4Cl)c3)ccc2n1` [Example 260, N-(6-(6-amino-5-(2-chlorophenyl)pyridin-3-yl)imidazo[1,2-b]pyridazin-2-yl)acetamide] belongs under 1000 nM; to `Nc1ncc(-c2ccc3nc(NC(=O)C4CCCC(=O)N4)cn3c2)cc1C(F)(F)F` (stereo not drawn) [Example 266, N-(6-(6-amino-5-(trifluoromethyl)pyridin-3-yl)imidazo[1,2-a]pyridin-2-yl)-6-oxo-piperidine-2-carboxamide], under 1000 nM.
With `CC(=O)N1CCCC[C@@H]1C(=O)Nc1cn2cc(-c3cnc(N)c(C(F)(F)F)c3)ccc2n1` [Example 47, (R)-1-acetyl-N-(6-(6-amino-5-(trifluoromethyl)pyridin-3-yl)imidazo[1,2-a]pyridin-2-yl)piperidine-2-carboxamide], the IC50 is under 10000 nM.
Still for that read-out and setting: to `COc1ccccc1C1CCCN1C(=O)Nc1cn2cc(-c3cnc(N)c(C(F)(F)F)c3)ccc2n1` (stereo not drawn) [Example 277, N-(6-(6-amino-5-(trifluoromethyl)pyridin-3-yl)imidazo[1,2-a]pyridin-2-yl)-2-(2-methoxyphenyl) pyrrolidine-1-carboxamide] belongs under 1000 nM; to `COc1ccc(C2CCCN2C(=O)Nc2cn3cc(-c4cnc(N)c(C(F)(F)F)c4)ccc3n2)cc1OC` (stereo not drawn) [Example 276, N-(6-(6-amino-5-(trifluoromethyl)pyridin-3-yl)imidazo[1,2-a]pyridin-2-yl)-2-(3,4-dimethoxyphenyl) pyrrolidine-1-carboxamide], under 1000 nM; to `Nc1ncc(-c2ccc3nc(NC(=O)N4CCC[C@H]4C(=O)O)cn3c2)cc1C(F)(F)F` [Example 49, (S)-1-(6-(6-amino-5-(trifluoromethyl)pyridin-3-yl)imidazo[1,2-a]pyridin-2-ylcarbamoyl) pyrrolidine-2-carboxylic acid], under 10000 nM.
Still for that read-out and setting: to `Nc1ncc(-c2ccc3nc(NC(=O)N4CCCC4c4ccco4)cn3c2)cc1C(F)(F)F` (stereo not drawn) [Example 274, N-(6-(6-amino-5-(trifluoromethyl)pyridin-3-yl)imidazo[1,2-a]pyridin-2-yl)-2-(furan-2-yl)pyrrolidine-1-carboxamide] belongs under 1000 nM.
`Nc1ncc(-c2ccc3nc(NC(=O)C4CCC(=O)NC4)cn3c2)cc1C(F)(F)F` (stereo not drawn) [Example 270, N-(6-(6-amino-5-(trifluoromethyl)pyridin-3-yl)imidazo[1,2-a]pyridin-2-yl)-6-oxopiperidine-3-carboxamide]: the 50% inhibitory concentration (IC50) was under 1000 nM.
Same read-out and setting: to `CC(=O)Nc1nc2ccc(-c3cnc(N)c(C(F)(F)F)c3)cn2c1C(C)=O` [Example 20, N-[3-Acetyl-6-(6-amino-5-trifluoromethyl-pyridin-3-yl)-imidazo[1,2-a]pyridin-2-yl]-acetamide] belongs under 10000 nM; to `Nc1ncc(-c2ccc3nc(NC(=O)c4cccc(-c5nn[nH]n5)c4)cn3c2)cc1C(F)(F)F` [Example 269, N-(6-(6-amino-5-(trifluoromethyl)pyridin-3-yl)imidazo[1,2-a]pyridin-2-yl)-3-(2H-tetrazol-5-yl)benzamide], under 1000 nM; to `CC(=O)Nc1cn2cc(-c3cnc(N)cc3C(F)(F)F)ccc2n1` [Example 22, N-[6-(6-Amino-4-trifluoromethyl-pyridin-3-yl)-imidazo[1,2-a]pyridin-2-yl]-acetamide], under 10000 nM.
For the compound `CC(=O)Nc1cn2cc(-c3cnc(N)nc3N)ccc2n1` [Example 48, N-(6-(2,4-diaminopyrimidin-5-yl)imidazo[1,2-a]pyridin-2-yl)acetamide], the IC50 is under 10000 nM.
Consider `Nc1ncc(-c2ccc3nc(NC(=O)[C@@H]4CCC(=O)O4)cn3c2)cc1C(F)(F)F` [Example 268], for which the IC50 is under 1000 nM.
Take `Nc1ncc(-c2ccc3nc(NC(=O)c4ccccc4C(=O)O)cn3c2)cc1C(F)(F)F` [Example 50, 2-(6-(6-amino-5-(trifluoromethyl)pyridin-3-yl)imidazo[1,2-a]pyridin-2-ylcarbamoyl) benzoic acid]: the half-maximal inhibitory concentration (IC50) was under 10000 nM.
As for `N#C/N=C(\N)NCCCC(=O)Nc1cn2nc(-c3cnc(N)c(C(F)(F)F)c3)ccc2n1` [Example 258, (E)-N-(6-(6-amino-5-(trifluoromethyl)pyridin-3-yl)imidazo[1,2-b]pyridazin-2-yl)-4-(2-cyanoguanidino) butanamide], the half-inhibitory concentration (IC50) was under 1000 nM.
